Experiments:
α-synuclein (αS) fibrils [1] = target: T1, α-synuclein (αS) fibrils (Homo sapiens, UniProt P37840); assay: fluorescence turn-on binding titration with αS fibrils
T1 construct: gene SNCA

α-synuclein (αS) fibrils [2] = target: T1, α-synuclein (αS) fibrils; assay: fluorescence competition binding with 3c and 4a; fluorescence turn-on

Row | Compound | Kd (α-synuclein (αS) fibrils [1]) | fluorescence competition binding with 3c and 4a; fluorescence turn-on (α-synuclein (αS) fibrils [2])
1 | Cc1c(C)n2c(/C=C/c3ccc(N4CCC4)cc3)c(C)c(=O)n2c1=O [3d, RBF 3d] | 3d and 3e, with cyclic amines, showed reduced affinity | –
2 | Cc1c(C)n2c(/C=C/c3ccc(N4CCOCC4)cc3)c(C)c(=O)n2c1=O [3e, RBF 3e] | 3d and 3e, with cyclic amines, showed reduced affinity | –
3 | Cc1ccc2c(c1)sc(-c1ccc(N(C)C)cc1)[n+]2C [ThT, Thioflavin-T] | – | both 3c and 4a competed with the promiscuous binder ThT, but that some ThT emission remained at saturating concentrations
